Results as given in patent publication US8258100B2, “Ligand/lytic peptide methods of use” (Board of Supervisors of Louisiana State University and …, priority 1997, dated 2012).
Where a SMILES comes first, the peptide text is derived from it. Where no end group is shown, it is not given here.

Key:
LH receptors = target: T1, LH receptors (Bos taurus, UniProt Q28005); test: binding of bLH fragment to LH receptors on granulosa cells; design: species or system bovine; conditions: data not shown
T1 construct: endogenous in cells; host or cells: primary bovine granulosa cells from pre-ovulatory follicles
Source text: (§1) Stimulation of target cell hormone production was not required for cell lysis.

[1] = tested on: LH receptors on the target granulosa cells; test: steroid hormone production by granulosa cells; format: cell-based, bovine; conditions: data not shown
Source text: as §1

GnRH receptor = target: T2, GnRH receptor (Rattus norvegicus, UniProt P30969); test: displacement of radiolabelled monoiodinated-GnRH from rat pituitary membranes; format: binding
T2 construct: specifically displaced radiolabelled monoiodinated-GnRH from rat pituitary membranes; from tissue; host or cells: rat pituitary membranes
T2 sequence (P30969 1-327): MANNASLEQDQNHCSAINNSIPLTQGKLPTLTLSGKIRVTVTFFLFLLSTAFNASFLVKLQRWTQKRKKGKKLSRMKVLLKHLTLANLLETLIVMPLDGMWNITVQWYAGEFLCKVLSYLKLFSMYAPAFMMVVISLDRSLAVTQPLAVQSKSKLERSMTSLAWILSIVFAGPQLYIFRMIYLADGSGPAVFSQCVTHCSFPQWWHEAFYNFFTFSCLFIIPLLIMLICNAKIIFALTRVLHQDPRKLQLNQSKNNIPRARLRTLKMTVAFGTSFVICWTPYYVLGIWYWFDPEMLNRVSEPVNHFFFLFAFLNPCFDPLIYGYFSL
Source text: We also synthesized D-Lys^6GnRH (SEQ. ID NO. 13), so that hecate could be conjugated to the D-Lys^6, a position that could minimize interference with binding of the GnRH domain to the GnRH receptor. These synthetic peptides specifically displaced radiolabelled monoiodinated-GnRH from rat pituitary membranes.

[2] = tested on: Sprague-Dawley female rats; test: Sprague-Dawley female rats, single intravenous treatment, necropsy at 48 or 96 hours, PAS stain of pituitary; format: in vivo, rat; conditions: D-hecate 674 μg, GnRH 334 μg, GnRH-hecate 1 mg
Experimental: Eight sexually mature, Sprague-Dawley female rats were randomly assigned to one of eight treatments. Each group of rats received a single treatment intravenously, as described below. Rats were sacrificed and necropsied either 48 or 96 hours after treatment. The ovaries, uterus, pancreas, liver, spleen, lungs, heart, thyroid, and adrenal glands were fixed in 10% buffered formalin; sectioned; and stained with H&E (hematoxylin and eosin) stain; except that the pituitary glands were stained with PAS (periodic acid-Schiff) stain with no counter-stain. The treatments were selected so that each animal received an equimolar amount of the compound with which it was treated.

[3] = tested on: sexually immature female rats; test: immature female rats, intravenous GnRH-hecate or GnRH then hecate, histology and immunocytochemistry at 14 days; format: in vivo, rat; conditions: as E29
Experimental: Another set of experiments was performed to study the in vivo effects of the GnRH-hecate conjugate on female rats and rabbits. The ovaries, uterus, oviducts, adrenals, spleen, thyroids, pancreas, liver, lungs, and heart were processed for histological analysis. […] The immunocytochemical staining procedures we used followed generally the procedures of M. Rahmanian et al., “Histological and immunocytochemical characterization of pituitary cell types in ponies,” Proc. 13th Soc. Equine Nutrition & Phys. Symp., pp. 348-349 (1993); M. Rahmanian et al., “Immunocytochemical localization of luteinizing hormone and follicle-stimulating hormone in the equine pituitary,” J. Anim. Sci., vol. 76, pp. 839-846 (1998); M. Rahmanian et al., “Immunocytochemical localization of prolactin and growth hormone in the equine pituitary,” Animal Sci., vol. 75, pp. 3010-3018 (1997); and P. Melrose et al., “Comparative topography of the immunoreactive alpha-melanocyte-stimulating hormone neuronal system in the brains of horses and rats,” Brain Beh. & Evol., vol. 32, pp. 226-235 (1988).
Brains were serially sectioned on a Vibrotome from the level of the diagonal band of Broca to the mammillary body. […]

[4] = tested on: sexually immature female rats; test: immature female rats, intravenous GnRH-hecate dose series; format: in vivo, rat; conditions: 0.1 to 1.5 mg IV, 24 hours or 14 days
Experimental: Sexually immature (33 day old) female rats (randomly allocated into groups of three) were injected intravenously with saline or GnRH-hecate in saline as follows:
Animals were sacrificed at 24 hours or at 14 days after treatment. […] In the rats sacrificed fourteen days after treatment, 66% and 87% of the GnRH-receptor-containing neurons were abnormal in the rats that had received 1.0 and 1.5 mg of GnRH-hecate, respectively. Axonal degeneration in the 1.5 mg GnRH-hecate group was accompanied by over 90% reduction in median eminence staining for GnRH.

[5] = tested on: female New Zealand rabbits; test: mature female New Zealand rabbits, intravenous GnRH-hecate, GnRH challenge day 46, necropsy day 47; format: in vivo, rabbit; conditions: 5 or 10 mg IV
Experimental: Seven sexually mature female New Zealand rabbits were injected intravenously with saline containing GnRH-hecate as follows:
Forty-six days later all rabbits were injected intramuscularly with 100 μg GnRH. Blood samples were collected at 0, 1, 4, and 24 hours, and LH and FSH levels in the blood samples were measured by radioimmunoassay. […] The rabbits were sacrificed the next day (day 47) for postmortem histological analysis. […] Ovarian and pituitary weights were reduced by the 10 mg GnRH-hecate treatment.

female rabbits = test: mature female rabbits, intravenous GnRH-hecate, GnRH challenge day 6, sacrifice day 7; format: in vivo, rabbit; conditions: 10 mg IV
Experimental: Nine sexually mature female rabbits were injected intravenously with saline containing 0 mg (n=4) (Treatment 46) or 10 mg GnRH-hecate (n=5) (Treatment 47). Rabbits were injected intramuscularly with GnRH on day 6 posttreatment. Blood samples were collected for radioimmunoassay of LH and FSH as described above, and the animals were sacrificed on day 7 post-treatment. […] The effects of GnRH-hecate on CNS morphology and immunocytochemical results were similar to those described above in Examples 34-45. Again, the effects were more pronounced on GnRH neurons than on staining of pituitary gonadotropes.

Diatraea saccharalis = test: fertility of sugar cane borer after inoculation of late-stage pupae; format: in vivo; conditions: 10 pupae inoculated, 1.0 μL of 1.35 mM peptide in saline
Experimental: Late-stage Diatraea saccharalis (sugar cane borer) pupae were inoculated with 1.0 μL of saline solution containing 1.35 mM concentration of peptide as stated, or saline alone as control. The pupae were allowed to complete metamorphosis. […] Adult female moths were allowed to mate with treated males, and then lay eggs. The viability of the eggs was measured by counting the number hatching into larvae.

[6] = tested on: bovine small luteal cells; test: in vitro lysis of bovine small luteal cells (Trypan Blue exclusion, lactic dehydrogenase release); format: cell-based, cattle; conditions: 22 hr
Experimental: We studied in vitro lysis of bovine luteal cells with GnRH-hecate conjugate and with hecate-bLH conjugate (SEQ. ID NO. 12). (The bLH component of the conjugate is a 15-mer fragment of the beta chain of luteinizing hormone, SEQ. ID NO. 11). Small luteal cells were collected from cattle corpora lutea post-slaughter.
Small luteal cells in culture were incubated with one of the following treatments for 22 hours, and were then examined for viability using Trypan Blue exclusion and release of lactic dehydrogenase.

bovine granulosa cells = test: in vitro lysis of bovine granulosa cells; format: cell-based; conditions: 1 μM
Source text: We also studied in vitro lysis of bovine granulosa cells with GnRH-hecate conjugate and with hecate-bLH conjugate. Granulosa cells were isolated from bovine pre-ovulatory follicles. (Granulosa cells are hormonally active cells with numerous LH receptors.) Our experiments with granulosa cells were otherwise generally similar to those described above for Examples 24-31.

DU145 cells = test: in vitro lysis of human prostate cancer cells, Trypan blue exclusion; format: cell-based; conditions: 22 hours; GnRH-hecate 50 μM; free hecate 30 μM; hecate-bLH 90 or 60 μM
Source text: (§2) LNCaP FGC and DU145 human prostate cancer cell lines were purchased from the American Type Culture Collection (ATCC, Rockville Md.), ATCC accession numbers CRL 1740 and HTB-81, respectively. The LNCaP FGC adenocarcinoma cell line was originally obtained from a person. LNCaP FGC cells are sensitive to dihydrotestosterone and to estrogens (A+). The DU145 carcinoma was originally isolated from the brain of a person with metastatic carcinoma of the prostate; this cell line is not sensitive to steroid hormones (A−).
(§3) Cells were detached from culture flasks, and 1000 cells/well were transferred to 24 well culture plates. The cells were incubated for 24 hours with 10% calf serum. Cells were subsequently incubated without serum for 48 hours. Cells were then incubated for 22 hours with one of the following treatments:
(§4) Trypan blue exclusion was used to assess viability of the cells after treatment. […] However, treatment with a lytic peptide alone may not be selective in vivo unless specific cell types are separately stimulated, for example by hormones controlling their activity.

LNCaP FGC cells = test: as above; format: cell-based
Source text: as §2, §3, §4

T1 sequence (Q28005 27-701): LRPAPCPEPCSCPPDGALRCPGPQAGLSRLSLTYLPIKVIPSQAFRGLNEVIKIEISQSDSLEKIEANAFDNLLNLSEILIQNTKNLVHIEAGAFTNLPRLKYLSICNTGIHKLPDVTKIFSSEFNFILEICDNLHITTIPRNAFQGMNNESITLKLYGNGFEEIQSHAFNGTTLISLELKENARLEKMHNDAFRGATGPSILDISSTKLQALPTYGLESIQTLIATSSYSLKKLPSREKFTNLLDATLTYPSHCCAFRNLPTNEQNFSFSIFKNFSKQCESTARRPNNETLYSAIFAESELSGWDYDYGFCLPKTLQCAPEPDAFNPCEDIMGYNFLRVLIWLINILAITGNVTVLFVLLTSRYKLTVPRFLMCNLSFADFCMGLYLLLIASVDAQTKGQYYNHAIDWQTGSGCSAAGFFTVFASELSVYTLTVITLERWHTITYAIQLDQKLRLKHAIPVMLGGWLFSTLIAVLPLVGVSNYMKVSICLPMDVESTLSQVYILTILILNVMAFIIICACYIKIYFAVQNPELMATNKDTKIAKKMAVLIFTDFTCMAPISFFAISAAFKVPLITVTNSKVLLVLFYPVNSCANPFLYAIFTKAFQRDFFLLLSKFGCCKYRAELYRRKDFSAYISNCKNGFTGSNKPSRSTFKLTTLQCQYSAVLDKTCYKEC

Molecule: 15-mer fragment of the bLH subunit: 15-mer fragment of the beta chain of luteinizing hormone, receptor binding site (SEQ. ID NO. 11) (SYAVALSCQCALCRR)
- binding to LH receptors on granulosa cells (LH receptors): specifically bound to LH receptors
- production of steroid hormones [1]: did not initiate the production of steroid hormones

Molecule: D-Lys^6GnRH-hecate: hecate conjugated to the D-Lys^6 of D-Lys^6GnRH
- displacement of radiolabelled monoiodinated-GnRH, as measured by cpm (GnRH receptor; rat pituitary membranes): comparable to (and actually slightly greater than) displacement by native mammalian GnRH

Molecule: D-Lys^6GnRH: GnRH analog with D-Lys at position 6 (SEQ. ID NO. 13)
- displacement of radiolabelled peptide relative to equimolar native GnRH (GnRH receptor; molar basis over a 1000-fold concentration range (n=6)): 187%±8%

Molecule: QHWSYGLRPGFALALKALKKALKKLKKALKKAL [GnRH-hecate]
- gross lesions in the organs [2]: No gross lesions were noted in the organs of any of the four animals, other than the pituitary
- C1 and C3 fields of the hippocampus [3]: histological damage to cells
- pathological changes in other tissues [3]: No pathological changes were noted in any other tissues
- VP staining in the CNS [4]: not altered
- hippocampus and other areas of the brain containing high concentrations of GnRH [5]: not discernibly affected
- effects on peripheral tissues or pituitary weight (female rabbits): No effects were noticed
- pupae completing metamorphosis into adult moths (Diatraea saccharalis): Eight

Molecule: CC(C)C[C@@H](NC(=O)[C@@H](C)NC(=O)[C@@H](CCCCN)NC(=O)[C@@H](CCCCN)NC(=O)[C@@H](CC(C)C)NC(=O)[C@@H](C)NC(=O)[C@@H](CCCCN)NC(=O)[C@@H](CCCCN)NC(=O)[C@@H](CC(C)C)NC(=O)[C@@H](CCCCN)NC(=O)[C@@H](CCCCN)NC(=O)[C@@H](CC(C)C)NC(=O)[C@@H](C)NC(=O)[C@@H](CCCCN)NC(=O)[C@@H](CCCCN)NC(=O)[C@@H](CC(C)C)NC(=O)[C@@H](C)NC(=O)[C@@H](CCCCN)NC(=O)[C@@H](CC(C)C)NC(=O)[C@@H](C)NC(=O)[C@@H](CC(C)C)NC(=O)[C@@H](C)NC(=O)[C@H](N)Cc1ccccc1)C(=O)O [D-hecate, reference compound] (HELM PEPTIDE1{[dF].[dA].[dL].[dA].[dL].[dK].[dA].[dL].[dK].[dK].[dA].[dL].[dK].[dK].[dL].[dK].[dK].[dA].[dL].[dK].[dK].[dA].[dL]}$$$$V2.0)
- gross lesions in the organs [2]: No gross lesions
- pupae completing metamorphosis into adult moths (Diatraea saccharalis): Six

Molecule: hecate-bLH: conjugate of hecate and a 15-mer fragment of the beta chain of luteinizing hormone (SEQ. ID NO. 12) (FALALKALKKALKKLKKALKKALSYAVALSCQCALCRR)
- number of cells killed relative to hecate alone at the same concentrations ([6]; 10, 5, 1 μM): approximately twice the number of cells as were killed by hecate alone
- lactic dehydrogenase activity (cell killing) ([6]; versus hecate alone): killed a significantly greater number of cells than did hecate alone
- cell death of small luteal cells versus hecate alone ([6]; all three doses (10, 5, 1 μM)): significant increases in cell death as compared to treatment with hecate alone
- levels of lactic dehydrogenase released (bovine granulosa cells): significantly higher than the levels of enzyme released following treatment with 1 μM hecate alone
- number of target cells killed relative to hecate alone (bovine granulosa cells): about twice the number of target cells as did hecate alone
- killing of cells (viability) (DU145 cells): killed almost all DU145 cells
- killing of cells (viability) (LNCaP FGC cells; 22 hours, GnRH-hecate 50 μM, hecate-bLH 90 or 60 μM): had little effect
- sensitivity of cells to conjugate (LNCaP FGC cells; FSH pre-treatment, followed by 90 μM hecate-bLH): more sensitive to the hecate-bLH conjugate than those that were not pre-treated
